In this assay the target is T1, human S1P1 receptor (Homo sapiens, UniProt P21453).
T1 construct: expressed in transfected cells; membranes were used
Nature of the assay: GTP γ35S binding assay for S1P1 activity. Format: biochemical. As to conditions: activity potency from GTP γ35S binding; 5 μg membrane protein, 30 min at 25° C., test compounds 0.08 to 5,000 nM. The procedure: Compounds were synthesized and tested for S1P1 activity using the GTP γ^35S binding assay. These compounds may be assessed for their ability to activate or block activation of the human S1P1 receptor in cells stably expressing the S1P1 receptor.
GTP γ^35S binding was measured in the medium containing (mM) HEPES 25, pH 7.4, MgCl2 10, NaCl 100, dithitothreitol 0.5, digitonin 0.003%, 0.2 nM GTP γ^35S, and 5 μg membrane protein in a volume of 150 μl. Test compounds were included in the concentration range from 0.08 to 5,000 nM unless indicated otherwise. Membranes were incubated with 100 μM 5′-adenylylimmidodiphosphate for 30 min, and subsequently with 10 μM GDP for 10 min on ice. Drug solutions and membrane were mixed, and then reactions were initiated by adding GTP γ^35S and continued for 30 min at 25° C. Reaction mixtures were filtered over Whatman GF/B filters under vacuum, and washed three times with 3 mL of ice-cold buffer (HEPES 25, pH7.4, MgCl2 10 and NaCl 100). Filters were dried and mixed with scintillant, and counted for ^35S activity using a 8-counter. Agonist-induced GTP γ^35S binding was obtained by subtracting that in the absence of agonist. Binding data were analyzed using a non-linear regression method. In case of antagonist assay, the reaction mixture contained 10 nM S1P in the presence of test antagonist at concentrations ranging from 0.08 to 5000 nM.
In general terms: GTPγS resists hydrolysis and so accumulates on activated G proteins.

The EC50 is the concentration needed to bring the measured effect to its halfway point.

T1 sequence (P21453 whole entry): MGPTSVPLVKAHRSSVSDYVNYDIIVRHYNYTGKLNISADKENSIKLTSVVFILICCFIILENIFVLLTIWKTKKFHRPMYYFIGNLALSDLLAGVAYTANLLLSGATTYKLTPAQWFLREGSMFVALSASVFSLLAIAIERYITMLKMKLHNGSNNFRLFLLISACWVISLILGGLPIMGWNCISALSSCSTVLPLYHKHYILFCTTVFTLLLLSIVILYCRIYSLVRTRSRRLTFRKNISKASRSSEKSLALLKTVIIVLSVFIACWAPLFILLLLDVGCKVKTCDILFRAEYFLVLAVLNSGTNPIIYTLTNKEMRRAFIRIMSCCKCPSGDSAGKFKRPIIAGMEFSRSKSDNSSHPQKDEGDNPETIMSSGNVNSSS

Compound `CNc1ncccc1-c1noc(C(Cc2ccc(C)c(C)c2)c2ccc(Cl)cc2)n1` (stereo not drawn) [Compound 10, 3-{5-[2-(3,4-dimethylphenyl)-1-(4-chlorophenyl)ethyl]-1,2,4-oxadiazol-3-yl}-N-methylpyridin-2-amine] registered an EC50 of 470 nM.
The value for `CNc1ncccc1-c1noc(C(Cc2ccc(C)c(C)c2)c2cccs2)n1` (stereo not drawn) [Compound 27, 3-(5-(2-(3,4-dimethylphenyl)-1-(thiophen-2-yl)ethyl)-1,2,4-oxadiazol-3-yl)-N-methylpyridin-2-amine] was 524 nM; that for `CNc1ncccc1-c1noc(C(Cc2ccc(C)cc2)c2cccs2)n1` (stereo not drawn) [Compound 26, N-methyl-3-(5-(1-(thiophen-2-yl)-2-(p-tolyl)ethyl)-1,2,4-oxadiazol-3-yl)pyridin-2-amine] was 928 nM.
The value for `CNc1ncccc1-c1noc(C(Cc2ccccc2)c2cccc(Cl)c2)n1` (stereo not drawn) [3-{5-[1-(3-chlorophenyl)-2-phenylethyl]-1,2,4-oxadiazol-3-yl}-N-methylpyridin-2-amine] was 112 nM; that for `CNc1ncccc1-c1noc(C(Cc2ccccc2)c2ccc(Cl)cc2)n1` (stereo not drawn) [3-{5-[1-(4-chlorophenyl)-2-phenylethyl]-1,2,4-oxadiazol-3-yl}-N-methylpyridin-2-amine] was 2400 nM; that for `CNc1ncccc1-c1noc(C(Cc2ccc(C)c(C)c2)c2cccc(Cl)c2)n1` (stereo not drawn) [Compound 2, 3-{5-[2-(3,4-dimethylphenyl)-1-(3-chlorophenyl)ethyl]-1,2,4-oxadiazol-3-yl}-N-methylpyridin-2-amine] was 66.4 nM.
The value for `CNc1ncccc1-c1noc(C(Cc2ccc(C)c(C)c2)c2cccc(OC)c2)n1` (stereo not drawn) [3-{5-[2-(3,4-dimethylphenyl)-1-(3-methoxyphenyl)ethyl]-1,2,4-oxadiazol-3-yl}-N-methylpyridin-2-amine] was 77.6 nM.
As for `CNc1ncccc1-c1noc(C(Cc2cc(C)cc(C)c2)c2ccc(Cl)nc2)n1` (stereo not drawn) [3-{5-[1-(6-chloropyridin-3-yl)-2-(3,5-dimethylphenyl)ethyl]-1,2,4-oxadiazol-3-yl}-N-methylpyridin-2-amine], the EC50 amounted to 2760 nM.
Turning to `CNc1ncccc1-c1noc(C(Cc2ccc(C)c(C)c2)c2cncc(Cl)c2)n1` (stereo not drawn) [3-{5-[1-(5-chloropyridin-3-yl)-2-(3,4-dimethylphenyl)ethyl]-1,2,4-oxadiazol-3-yl}-N-methylpyridin-2-amine], a half-maximal effect (EC50) was put at 14.5 nM.
The value for `CNc1ncccc1-c1noc(C(Cc2ccc(C)c(C)c2)c2cccc(C)c2)n1` (stereo not drawn) [3-{5-[2-(3,4-dimethylphenyl)-1-(3-methylphenyl)ethyl]-1,2,4-oxadiazol-3-yl}-N-methylpyridin-2-amine] was 50.2 nM; that for `CNc1ncccc1-c1noc(C(Cc2cccc(C)c2)c2cccc(Cl)c2)n1` (stereo not drawn) [3-{5-[1-(3-chlorophenyl)-2-(3-methylphenyl)ethyl]-1,2,4-oxadiazol-3-yl}-N-methylpyridin-2-amine] was 125 nM.
The value for `CNc1ncccc1-c1noc(C(CC2CCCCC2)c2cccc(Cl)c2)n1` (stereo not drawn) [3-{5-[1-(3-chlorophenyl)-2-cyclohexylethyl]-1,2,4-oxadiazol-3-yl}-N-methylpyridin-2-amine] was 348 nM; that for `CNc1ncccc1-c1noc(C(Cc2ccc(C)c(C)c2)c2cccc(Br)c2)n1` (stereo not drawn) [Compound 3, 3-{5-[2-(3,4-dimethylphenyl)-1-(3-bromophenyl)ethyl]-1,2,4-oxadiazol-3-yl}-N-methylpyridin-2-amine] was 50.6 nM.
With `CNc1ncccc1-c1noc(C(Cc2ccc(C)c(C)c2)c2cccc(F)c2)n1` (stereo not drawn) [3-{5-[2-(3,4-dimethylphenyl)-1-(3-fluorophenyl)ethyl]-1,2,4-oxadiazol-3-yl}-N-methylpyridin-2-amine], the EC50 amounted to 35.7 nM.
As for `CNc1ncccc1-c1noc(C(Cc2ccc(C)c(C)c2)c2ccc(Cl)nc2)n1` (stereo not drawn) [3-{5-[1-(6-chloropyridin-3-yl)-2-(3,4-dimethylphenyl)ethyl]-1,2,4-oxadiazol-3-yl}-N-methylpyridin-2-amine], the midpoint of the response, the EC50, lay at 274 nM.
The value for `CNc1ncccc1-c1noc(C(Cc2ccc(C)cc2)c2cccc(Cl)c2)n1` (stereo not drawn) [3-{5-[1-(3-chlorophenyl)-2-(4-methylphenyl)ethyl]-1,2,4-oxadiazol-3-yl}-N-methylpyridin-2-amine] was 78.3 nM.
The value for `CNc1ncccc1-c1noc(C(Cc2ccc(C)c(C)c2)c2cc(F)cc(F)c2)n1` (stereo not drawn) [Compound 23, 3-(5-(1-(3,5-difluorophenyl)-2-(3,4-dimethylphenyl)ethyl)-1,2,4-oxadiazol-3-yl)-N-methylpyridin-2-amine] was 12 nM.
Under `CNc1ncccc1-c1noc(C(Cc2ccc(C)c(C)c2)c2ccsc2)n1` (stereo not drawn) [Compound 29, 3-(5-(2-(3,4-dimethylphenyl)-1-(thiophen-3-yl)ethyl)-1,2,4-oxadiazol-3-yl)-N-methylpyridin-2-amine] stands 296 nM.
As for `CNc1ncccc1-c1noc(C(Cc2ccc(CC(C)C)cc2)c2cccc(Cl)c2)n1` (stereo not drawn) [3-{5-[1-(3-chlorophenyl)-2-(4-isobutylphenyl)ethyl]-1,2,4-oxadiazol-3-yl}-N-methylpyridin-2-amine], the EC50 amounted to 2090 nM.
Under `CNc1ncccc1-c1noc(C(Cc2ccc(C)c(C)c2)c2cccc([N+](=O)[O-])c2)n1` (stereo not drawn) [3-{5-[2-(3,4-dimethylphenyl)-1-(3-nitrophenyl)ethyl]-1,2,4-oxadiazol-3-yl}-N-methylpyridin-2-amine] stands 86.4 nM; under `CNc1ncccc1-c1noc(C(Cc2ccc(Cl)c(Cl)c2)c2ccc(Cl)cc2)n1` (stereo not drawn) [3-{5-[1-(4-chlorophenyl)-2-(3,4-dichlorophenyl)ethyl]-1,2,4-oxadiazol-3-yl}-N-methylpyridin-2-amine], 2020 nM.
`CCc1cccc(C(Cc2ccc(C)c(C)c2)c2nc(-c3cccnc3NC)no2)c1` (stereo not drawn) [3-{5-[2-(3,4-dimethylphenyl)-1-(3-ethylphenyl)ethyl]-1,2,4-oxadiazol-3-yl}-N-methylpyridin-2-amine] returned an EC50 of 61.8 nM.
In turn, `CNc1ncccc1-c1noc(C(CC2CCCC2)c2cccc(Cl)c2)n1` (stereo not drawn) [3-{5-[1-(3-chlorophenyl)-2-cyclopentylethyl]-1,2,4-oxadiazol-3-yl}-N-methylpyridin-2-amine] returned an EC50 of 1860 nM.
For the compound `CNc1ncccc1-c1noc(C(Cc2ccc(C)c(C)c2)c2cccc(C(F)(F)F)c2)n1` (stereo not drawn) [3-(5-{2-(3,4-dimethylphenyl)-1-[3-(trifluoromethyl)phenyl]ethyl}-1,2,4-oxadiazol-3-yl)-N-methylpyridin-2-amine], the EC50 stood at 167 nM.
On to `CNc1ncccc1-c1noc(C(Cc2ccccc2)c2ccccc2)n1` (stereo not drawn) [Compound 24, 3-(5-(1,2-diphenylethyl)-1,2,4-oxadiazol-3-yl)-N-methylpyridin-2-amine], for which it took 1240 nM to reach a half-maximal effect (EC50).
`CNc1ncccc1-c1noc(C(Cc2ccc(C)c(C)c2)c2ccc(C(F)(F)F)cc2)n1` (stereo not drawn) [3-(5-{2-(3,4-dimethylphenyl)-1-[4-(trifluoromethyl)phenyl]ethyl}-1,2,4-oxadiazol-3-yl)-N-methylpyridin-2-amine] came in with an EC50 of 2260 nM.
Under `CNc1ncccc1-c1noc(C(Cc2ccc(C)c(C)c2)c2ccc(OC)cc2)n1` (stereo not drawn) [3-{5-[2-(3,4-dimethylphenyl)-1-(4-methoxyphenyl)ethyl]-1,2,4-oxadiazol-3-yl}-N-methylpyridin-2-amine] stands 1330 nM; under `CNc1ncccc1-c1noc(C(Cc2ccc(C)c(C)c2)c2ccccc2)n1` (stereo not drawn) [3-{5-[2-(3,4-dimethylphenyl)-1-phenylethyl]-1,2,4-oxadiazol-3-yl}-N-methylpyridin-2-amine], 912 nM; under `CNc1ncccc1-c1noc(C(Cc2ccc(C)cc2)c2ccsc2)n1` (stereo not drawn) [Compound 1, N-methyl-3-(5-(1-(thiophen-3-yl)-2-(p-tolyl)ethyl)-1,2,4-oxadiazol-3-yl)pyridin-2-amine], 533 nM.
Under `CNc1ncccc1-c1noc(C(Cc2ccc(C)c(C)c2)c2cc(C)cc(C)c2)n1` (stereo not drawn) [Compound 25, 3-(5-(2-(3,4-dimethylphenyl)-1-(3,5-dimethylphenyl)ethyl)-1,2,4-oxadiazol-3-yl)-N-methylpyridin-2-amine] stands 161 nM.
